Drawing on patent US12077503B2, “Substituted cyclic amides and their use as herbicides” (FMC CORPORATION, priority 2015, dated 2024), this text covers plant injury and pest or weed control for one compound.

Each structure is given as a SMILES string.

Common to all, as to type: in vivo
Assay [1] has as its system corn (Zea mays). The experiment in a line: Test A postemergence. The settings on record: Zea mays, post-emergence, 240 h, 125 g ai/ha, postemergence, visual injury rating after approximately 10 d; read-out: Corn plant response rating (0 to 100 scale, 0 no effect, 100 complete control). In short, it runs like this: (§1)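 Treatment is preemergence as a directed soil spray after planting, or postemergence at the one- to two-leaf stage, with test chemical in a non-phytotoxic solvent mixture plus surfactant. Plants stay in the greenhouse about 10 d before visual injury scoring on a 0 to 100 scale versus untreated controls.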

Assay [2] relates to blackgrass (Alopecurus myosuroides). As to the kind of experiment: Test A postemergence. The settings on record: Alopecurus myosuroides, post-emergence, 240 h, 125 g ai/ha, postemergence, visual injury rating after approximately 10 d; read-out: Blackgrass plant response rating (0 to 100 scale, 0 no effect, 100 complete control). In short, it runs like this: as §1
For assay [3], the system named is ragweed (common ragweed, Ambrosia elatior). The experiment in a line: Test A postemergence. The note with it: Ambrosia artemisiifolia, post-emergence, 240 h, 125 g ai/ha, postemergence, visual injury rating after approximately 10 d; read-out: Ragweed plant response rating (0 to 100 scale, 0 no effect, 100 complete control). In outline: as §1
Assay [4] deals with giant foxtail (Setaria faberii). The experiment in a line: Test A postemergence. The settings on record: Setaria faberi, post-emergence, 240 h, 125 g ai/ha, postemergence, visual injury rating after approximately 10 d; read-out: Foxtail, Giant plant response rating (0 to 100 scale, 0 no effect, 100 complete control). In short, it runs like this:
as §1

For assay [5], the system named is Kochia (Kochia scoparia). As to the kind of experiment: Test A postemergence. The settings on record: Bassia scoparia, post-emergence, 240 h, 125 g ai/ha, postemergence, visual injury rating after approximately 10 d; read-out: Kochia plant response rating (0 to 100 scale, 0 no effect, 100 complete control). In short, it runs like this:
as §1

The subject of assay [6] is barnyardgrass (Echinochloa crus-galli). The experiment in a line: Test A postemergence. The settings on record: Echinochloa crus-galli, post-emergence, 240 h, 125 g ai/ha, postemergence, visual injury rating after approximately 10 d; read-out: Barnyardgrass plant response rating (0 to 100 scale, 0 no effect, 100 complete control). In outline:
as §1

In assay [7] the test system is Galium (catchweed bedstraw, Galium aparine). As to the kind of experiment: Test A postemergence. The note with it: Galium, post-emergence, 240 h, 125 g ai/ha, postemergence, visual injury rating after approximately 10 d; read-out: Galium plant response rating (0 to 100 scale, 0 no effect, 100 complete control). In outline:
as §1

For assay [8], the system named is wheat (Triticum aestivum). The experiment in a line: Test A postemergence. The settings on record: Triticum aestivum, post-emergence, 240 h, 125 g ai/ha, postemergence, visual injury rating after approximately 10 d; read-out: Wheat plant response rating (0 to 100 scale, 0 no effect, 100 complete control). In outline:
as §1

Assay [9] has as its system ryegrass, Italian (Italian ryegrass, Lolium multiflorum). The experiment in a line: Test A postemergence. The note with it: Lolium multiflorum, post-emergence, 240 h, 125 g ai/ha, postemergence, visual injury rating after approximately 10 d; read-out: Ryegrass, Italian plant response rating (0 to 100 scale, 0 no effect, 100 complete control). In outline:
as §1

For assay [10], the system named is pigweed (Amaranthus retroflexus). The experiment in a line: Test A preemergence. The settings on record: Amaranthus retroflexus, pre-emergence, 240 h.
Assay [11] deals with ragweed (common ragweed, Ambrosia elatior). The experiment in a line: Test A preemergence. The note with it: Ambrosia artemisiifolia, pre-emergence, 240 h. In short, it runs like this: as §1
Assay [12] deals with giant foxtail (Setaria faberii). The experiment in a line: Test A preemergence. The note with it: Setaria faberi, pre-emergence, 240 h. In outline: as §1
Assay [13] has as its system Kochia (Kochia scoparia). The experiment in a line: Test A preemergence. The note with it: Bassia scoparia, pre-emergence, 240 h. In short, it runs like this:
as §1

The subject of assay [14] is barnyardgrass (Echinochloa crus-galli). As to the kind of experiment: Test A preemergence. The settings on record: Echinochloa crus-galli, pre-emergence, 240 h. In outline: as §1
Assay [15] has as its system ryegrass, Italian (Italian ryegrass, Lolium multiflorum). As to the kind of experiment: Test A preemergence. The note with it: Lolium multiflorum, pre-emergence, 240 h. In short, it runs like this: as §1

`CN1C[C@H](c2cccc(COC(F)F)c2)[C@@H](C(=O)Nc2cccc(F)c2F)C1=O` [Compound 873]: the plant injury at 125 g/ha turned out to be 70% in [1] and 30% in assay [8]. In addition, the pest or weed control at 125 g/ha amounted to 50% in assay [2]; 30% in assay [3]; 90% in assay [4]; 60% in assay [5]; 90% in [6]; 50% in assay [7]. In addition, the pest or weed control at 125 g/ha in [9] worked out at 40%; in assay [10] (125 g ai/ha, preemergence, 0 to 100 scale where 0 is no effect and 100 is complete control, read-out: Pigweed plant response rating), 40%; in [11] (125 g ai/ha, preemergence, 0 to 100 scale where 0 is no effect and 100 is complete control, read-out: Ragweed plant response rating), 40%; in assay [12] (125 g ai/ha, preemergence, 0 to 100 scale where 0 is no effect and 100 is complete control, read-out: Foxtail, Giant plant response rating) it was 90%; in [13] (125 g ai/ha, preemergence, 0 to 100 scale where 0 is no effect and 100 is complete control, read-out: Kochia plant response rating), 80%; in assay [14] (125 g ai/ha, preemergence, 0 to 100 scale where 0 is no effect and 100 is complete control, read-out: Barnyardgrass plant response rating), 90%. Moreover, the pest or weed control at 125 g/ha in assay [15] (125 g ai/ha, preemergence, 0 to 100 scale where 0 is no effect and 100 is complete control, read-out: Ryegrass, Italian plant response rating) was 50%. The pest or weed control at 500 g/ha in [10] (500 g ai/ha, Preemergence, visual injury vs untreated controls after approximately 10 d, read-out: Pigweed plant response rating (0 to 100 scale where 0 is no effect and 100 is complete control)) is 50%; in assay [11] (500 g ai/ha, Preemergence, visual injury vs untreated controls after approximately 10 d, read-out: Ragweed plant response rating (0 to 100 scale where 0 is no effect and 100 is complete control)) it was 90%; in [12] (500 g ai/ha, Preemergence, visual injury vs untreated controls after approximately 10 d, read-out: Foxtail, Giant plant response rating (0 to 100 scale where 0 is no effect and 100 is complete control)), 100%; in assay [13] (500 g ai/ha, Preemergence, visual injury vs untreated controls after approximately 10 d, read-out: Kochia plant response rating (0 to 100 scale where 0 is no effect and 100 is complete control)), 90%; in assay [14] (500 g ai/ha, Preemergence, visual injury vs untreated controls after approximately 10 d, read-out: Barnyardgrass plant response rating (0 to 100 scale where 0 is no effect and 100 is complete control)), 90%; in [15] (500 g ai/ha, Preemergence, visual injury vs untreated controls after approximately 10 d, read-out: Ryegrass, Italian plant response rating (0 to 100 scale where 0 is no effect and 100 is complete control)), 80%.
